# Test results published in ChEMBL document CHEMBL1145418, “Cerebrosides and tocopherol trimers from the seeds of Euryale ferox” (J Nat Prod, 2007).
# Test system: Artemia
# Assay: (§1) Toxicity against brine shrimp after 24 hr by brine shrimp lethality test
# Type: organism-based
# Settings: in vivo, 24 h
row,SMILES,Activity
1,CC1=C(C)[C@@]23Oc4c(C)c(C)c5c(c4C[C@@]2(CC[C@@](C)(CCCC(C)CCCC(C)CCCC(C)C)O3)C2(Cc3c4c(c(C)c(C)c3O2)O[C@](C)(CCCC(C)CCCC(C)CCCC(C)C)CC4)C1=O)CC[C@@](C)(CCCC(C)CCCC(C)CCCC(C)C)O5 (stereo partly specified) [FEROTOCOTRIMER C],Non-toxic
2,CC1=C(C)[C@]23Oc4c(C)c(C)c5c(c4C[C@]2(CC[C@@](C)(CCCC(C)CCCC(C)CCCC(C)C)O3)C2(Cc3c4c(c(C)c(C)c3O2)O[C@](C)(CCCC(C)CCCC(C)CCCC(C)C)CC4)C1=O)CC[C@@](C)(CCCC(C)CCCC(C)CCCC(C)C)O5 (stereo partly specified) [FEROTOCOTRIMER D],Non-toxic
3,CC1=C(C)[C@]23Oc4c(C)c(C)c5c(c4C[C@]2(CC[C@@](C)(CCCC(C)CCCC(C)CCCC(C)C)O3)C2(CCc3c4c(c(C)c(C)c3O2)O[C@](C)(CCCC(C)CCCC(C)CCCC(C)C)CC4)C1=O)CC[C@@](C)(CCCC(C)CCCC(C)CCCC(C)C)O5 (stereo partly specified) [TOCOPHEROL TRIMER IVA],Non-toxic
4,CC1=C(C)[C@@]23Oc4c(C)c(C)c5c(c4C[C@@]2(CC[C@@](C)(CCCC(C)CCCC(C)CCCC(C)C)O3)C2(CCc3c4c(c(C)c(C)c3O2)O[C@](C)(CCCC(C)CCCC(C)CCCC(C)C)CC4)C1=O)CC[C@@](C)(CCCC(C)CCCC(C)CCCC(C)C)O5 (stereo partly specified) [TOCOPHEROL TRIMER IVB],Non-toxic

# Test system: not listed separately
# Assay: as §1
# Type: organism-based
# Settings: artemia, in vivo
row,SMILES,LC50 at 24 h
1,CCCCCCC/C=C/CC/C=C/[C@@H](O)[C@H](CO[C@@H]1O[C@H](CO)[C@@H](O)[C@H](O)[C@H]1O)NC(=O)[C@H](O)CCCCCCCCCCCCCCCCCCCC,170 µM
2,CCCCCCC/C=C/CC/C=C/[C@@H](O)[C@H](CO[C@@H]1O[C@H](CO)[C@@H](O)[C@H](O)[C@H]1O)NC(=O)[C@H](O)CCCCCCCCCCCCCCCCCCCCCC,200 µM
